Measured values taken from patent EP0501354B1, “Anticataract composition” (Senju Pharmaceutical Co., Ltd., priority 1991, dated 1992).

Assays:
[1] = tested on: streptozotocin-induced diabetic cataract; assay: Inhibitory effect on streptozotocin-induced diabetic cataract (slit lamp, rating scale of Sasaki et al.); format: in vivo, male SD rats; details: for time at which cataract scores were reached compared with control group / degree of progression of cataract, time series analysis of variance vs control group: 100 mg/kg/day intraperitoneally once a day for 56 days; for time at which cataract scores were reached compared with control group: rating scale of Sasaki et al. 0-6; for degree of progression of cataract, time series analysis of variance vs control group: scored every seven days; for vacuolation rate (of the eyes): after 7 days, 100 mg/kg/day intraperitoneally once a day, STZ 70 mg/kg i.v. rats, control group 45%
Method: Streptozotocin (hereafter abbreviated as STZ), 70 mg/kg, was administered intravenously to 28 male SD rats aged 4 weeks to induce diabetes. Thereafter, the animals were divided into three groups (two groups consisting of 10 animals each and a group consisting of 8 animals). […] The lens was examined with a slit lamp under mydriasis with Mydrin-P before the beginning of drug administration and every seven days after initiation of administration. The degree of cataract was scored according to the rating scale of Sasaki et al. (Ophthalmic Res. 15: 185-190, 1983) and the anticataract activity of each drug was tested by time series analysis of variance. Body weights were taken on each observation day. […] Rating scale of Sasaki et al. 0: No abnormality. 1: Vacuoles are present in the equator of the lens. 2: Vacuoles spread toward the anterior pole beneath the cortex of the anterior lens capsule. 3: Vacuole begin to merge. 4: The deep layer of the cortex of the anterior lens capsule is cloudy. 5: The central part of the lens is milk white in color. 6: Virtually the entire lens is milk white in color (mature cataract).

[2] = Body weight during treatment of streptozotocin-diabetic rats; format: in vivo, male SD rats; details: 100 mg/kg/day intraperitoneally once a day for 56 days; STZ-diabetic rats
Method: Streptozotocin (hereafter abbreviated as STZ), 70 mg/kg, was administered intravenously to 28 male SD rats aged 4 weeks to induce diabetes. Thereafter, the animals were divided into three groups (two groups consisting of 10 animals each and a group consisting of 8 animals). One group received 2% glutathione (dissolved in physiological saline, hereafter referred to as GSH group), another group S-(diethyl α,β-carboxyethyl)glutathione sodium (dissolved in physiological saline, hereafter referred to as DCE-EtGS group), and a third group physiological saline (hereafter referred to as control group), all intraperitoneally in a volume of 0.5 ml/100 g body weight once a day for 56 days (100 mg/kg/day as active substance). The lens was examined with a slit lamp under mydriasis with Mydrin-P before the beginning of drug administration and every seven days after initiation of administration. The degree of cataract was scored according to the rating scale of Sasaki et al. (Ophthalmic Res. 15: 185-190, 1983) and the anticataract activity of each drug was tested by time series analysis of variance. Body weights were taken on each observation day. Incidentally, blood glucose levels were determined 5 days after administration of STZ and the study was continued only after confirmation of hyperglycemia.

Row | SMILES | time at which cataract scores were reached compared with control group [1] | degree of progression of cataract, time series analysis of variance vs control group [1] | vacuolation rate (of the eyes) [1] [%] | Body weight gain vs control group [2]
1 | N[C@@H](CCC(=O)N[C@@H](CS)C(=O)NCC(=O)O)C(=O)O [GSH, glutathione, reference compound] | scores of 5 and 6 were reached later than in the control group | no significant difference from the control group | 56.3 | 
2 | CCOC(=O)CC(SCC(NC(=O)CCC(N)C(=O)O)C(=O)NCC(=O)O)C(=O)OCC (stereo not drawn) [DCE-EtGS, S-(Diethyl α,β-dicarboxyethyl)glutathione sodium] | scores of 2, 4, 5 and 6 being reached later than in the control group | significant delay of progression | 25 | significantly greater
